The target in series [1] is T1, COX-2 (Ovis aries, UniProt P79208).
T1 construct: purchased
T1 sequence (P79208 17-603): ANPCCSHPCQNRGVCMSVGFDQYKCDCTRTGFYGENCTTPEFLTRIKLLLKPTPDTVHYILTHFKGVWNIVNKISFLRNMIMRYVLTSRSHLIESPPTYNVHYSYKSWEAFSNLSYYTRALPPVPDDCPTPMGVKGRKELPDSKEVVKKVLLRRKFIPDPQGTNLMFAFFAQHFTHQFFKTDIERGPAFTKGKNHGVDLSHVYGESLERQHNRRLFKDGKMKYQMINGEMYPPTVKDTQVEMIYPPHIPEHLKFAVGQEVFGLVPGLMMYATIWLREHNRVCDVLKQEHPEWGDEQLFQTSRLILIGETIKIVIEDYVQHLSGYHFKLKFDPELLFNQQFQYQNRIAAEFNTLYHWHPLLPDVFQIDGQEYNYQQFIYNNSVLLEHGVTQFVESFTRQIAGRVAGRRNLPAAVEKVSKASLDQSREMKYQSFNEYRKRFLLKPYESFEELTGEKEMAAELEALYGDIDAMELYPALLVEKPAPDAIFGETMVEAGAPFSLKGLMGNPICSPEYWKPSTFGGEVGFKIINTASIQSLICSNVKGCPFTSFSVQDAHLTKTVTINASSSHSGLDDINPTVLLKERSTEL
As to the kind of experiment: In vitro COX-2 inhibition assay (ovine COX-1/COX-2 assay kit). It counts as biochemical. The source says:
The selectivity index (SI values) was defined as IC50 COX-1/ IC50 COX-2.
Recent studies on COX-1 and COX-2 inhibitors are focused on increasing the selectivity index of drugs towards […] as it acts as the main effector in the mechanism of pain and inflammation.

The test system of series [2] is Candida albicans. As to the kind of experiment: Agar well diffusion antifungal assay.
The test system of series [3] is Aspergillus niger. As to the kind of experiment: Agar well diffusion antifungal assay. In general terms: Agar diffusion results depend on both activity and mobility in agar.
In series [4] the test system is Staphylococcus aureus (ATCC12600). As to the kind of experiment: Agar well diffusion antimicrobial assay. The conditions noted are these: ATCC12600, 24 h, read-out: inhibition zone, S. aureus.
Series [5] concerns Bacillus subtilis (ATCC 6051). As to the kind of experiment: Agar well diffusion antimicrobial assay. The conditions noted are these: ATCC6051, 24 h, read-out: inhibition zone, B. subtilis.
Series [6] has as its system Klebsiella pneumoniae (ATCC10145). As to the kind of experiment: Agar well diffusion antimicrobial assay. As to conditions: ATCC10145, 24 h, read-out: inhibition zone, K. pneumoniae.
The test system of series [7] is Escherichia coli (ATCC 1175). As to the kind of experiment: Agar well diffusion antimicrobial assay. The conditions noted are these: ATCC1175, 24 h, read-out: inhibition zone, E. coli.
For series [8], the system named is PGE2. As to the kind of experiment: Determination of rat serum PGE2. The conditions noted are these: 6 h after carrageenan, oral. It counts as in vivo.
Experimental: Inflammation was induced in all groups by carrageenan (0.2 mL, 1% saline solution) injected subcutaneously into the plantar surface of the right hind paw. Group 1 served as a normal group, group 2 received carrageenan only, and groups 3, 4, 5, 6, and 7 received the test drugs orally 1 h before carrageenan (n = 6) [58]. Blood samples were collected from all groups and centrifuged for 15 minutes to separate the serum and measure serum PGE2 Pg/mL. Percentage inhibition was calculated as [1 − (sample PGE2 concentration/control PGE2 concentration)] × 100. All data of the PGE2 concentration are represented as mean ± SD.
The ability of the dendrimers to inhibit PGE2 was evaluated by measuring the rat serum concentration of PGE2 in blood samples collected after 6 h from subcutaneous carrageenan injection.
In series [9] the test system is carrageenan-induced paw edema. Briefly: Carrageenan-induced rat paw edema assay. It counts as in vivo. The conditions noted are these: oral. Here is the method:
The present study was performed on adult albino Wistar rats, weighing 185 ± 200 g. Animals were kept in the animal house at MSA university. They were kept under suitable conditions of humidity and temperature (humidity 60–70%, temperature 24 ± 2 °C). The animals were fed by standard pellet chow (El-Nasr chemical Co., Cairo, Egypt) and were given access to water ad libitum.
Inflammation was induced in all groups by carrageenan (0.2 mL, 1% saline solution), which was injected subcutaneously into the plantar surface of the right hind paw. Group 1 served as a normal group, group 2 received carrageenan only, and groups 3, 4, 5, 6, and 7 received the test drugs orally 1 h before carrageenan (n = 6). Edema was measured in diameter (mm) at 1 h, 2 h, 4 h, and 6 h after carrageenan injection using a digital caliper. Percentage edema inhibition was calculated as [1 − (sample diameter/control diameter)] × 100. All data of the paw edema are represented as mean ± SD.
The strength of the tested dendrimers to inhibit edema (% edema inhibition) was calculated based on the changes in paw thickness (edema diameter, mm) at different periods; 1 h, 2 h, 4 h, and 6 h (Table 4).
(The carrageenan paw model is a standard test of acute inflammation.)

Series [10] concerns breast cancer cell lines (MCF-7). Briefly: MTT cell viability assay. As to conditions: Homo sapiens, MCF7, mean ± SE, unit inferred, read-out: Cytotoxicity (IC50), MCF-7. It counts as cell-based. Here is the method:
(§1) The cytotoxic activities of the tested dendrimers against the breast cancer cell line MCF-7, embryonic kidney non-cancer cells (HEK-293), and hepatic cellular Hep-G2 were evaluated by MTT assay. A cell suspension was diluted with complete medium to a concentration of 5 × 10^4 cell/ml. By using a micropipette, 100 μL aliquots of the cell suspension were pipetted into all wells of 96-well plate (~5000 cells/well). These plates were incubated at 37 °C for one day to allow cell attachment. Then, cells were treated using 100 µL of growth medium consisting of 0, 0.001, 0.01, 0.1, 1, 10, or 100 μL of the freshly prepared aspirin-based dendrimers in triplicate. After that, cells were rinsed with phosphate-buffered saline (PBS), and an appropriate fresh medium including 20 μL MTT in phosphate-buffered saline (0.5 mg/mL) was added to the test wells. The 96-well plate was then further incubated in a carbon dioxide incubator at 37 °C for another 4 h, and the MTT assay study was done. The MTT assay procedure is based on the reduction of the tetrazolium salt MTT to unsolvable purple formazan via metabolically effective cells, making their activities quantifiable via spectrophotometry. Consequently, the produced formazan crystals were dissolved in 120 μL DMSO solvent for each well. Cell viability was established by measuring the absorbance of each well at 570 nm, and at a reference wavelength of 630 nm using an ELISA plate reader. […] Vinblastine was used as the standard and the corresponding IC50 values were determined by Equation (1):(1) IC50(%)=ControlOD−CompoundOD/ControlODx 100
For orientation: Tetrazolium assays rely on reduction of a dye to a coloured formazan, in cell work by metabolically active cells.

Series [11] can be described thus: MTT cell viability assay. The series is classed as cell-based. The conditions noted are these: human, mean ± SE, unit inferred. Here is the method:
as §1

In series [12] the test system is gastric mucosa. Briefly: Evaluation of gastrointestinal toxicity (gastric ulcers). The series is classed as in vivo. As to conditions: rat, 400 mg/kg orally, 4 h, mean ± standard deviation. Here is the method:
The gastric mucosa was carefully inspected for the occurrence of ulcers with the aid of an illuminated magnifying lens (l0×), the ulcer score was calculated according to published method and ulcer index was determined using the reported formula [60]. Ulcer index = 10/x, where x= total mucosal area/ total ulcerated area. All data are represented as mean ± standard deviation.
Rats were fasted for 24 h and then randomly allocated into the following groups to evaluate the potential toxicity of dendrimers on the stomach:
Group 3 received G1 (400 mg/kg) orally.
Group 4 received G2 (400 mg/kg) orally.
Group 5 received G3 (400 mg/kg) orally.
Group 6 received G4 (400 mg/kg) orally.
Animals were left for 4 h and then sacrificed under light anesthesia for stomach dissection. The gastric mucosa was carefully inspected for the occurrence of ulcers with the aid of an illuminated magnifying lens (l0x), the ulcer score was calculated based on published study and ulcer index was determined using the reported formula [60]. Ulcer index = 10/x, where x= total mucosal area/total ulcerated area.

Series [13] has as its system gastric mucosa. Briefly: Histopathology examination of stomach. It counts as in vivo, rat. As for the experimental part:
The stomach was dissected out, rinsed, and kept in a 10% neutral formalin solution. After fixation, tissues were routinely processed and stained with hematoxylin and eosin for light microscopy. Lesion scores were evaluated in this study according to a published report three parameters were evaluated in relation to their severity; epithelial cell loss was given a score from 0 to 3, hemorrhage was given a score from 0 to 4, and a score from 0 to 2 was given for inflammatory cell infiltration. The total score was given by the summation of the three scores.

Setting [14] is: 15 mg/mL, agar well diffusion, 37 °C 24 h, mean ± SE.
The mark [15] stands for this setting: HEK-293 embryonic kidney non-cancer cells, normal cell line, read-out: Cytotoxicity (IC50), HEK-293.
Setting [16] is: Hep-G2 cells, read-out: Cytotoxicity (IC50), Hep-G2.
Setting [17] is: rat stomach, compared to the aspirin group.

Structures are written as SMILES. In brackets after ≈: the same amount, converted by molar mass. Where two headings read alike, the source gives them in different places.

What is called IC50 is the point on the concentration scale where inhibition reaches its midpoint. In series [1], `CS(=O)(=O)c1ccc(C2=C(c3ccccc3)C(=O)OC2)cc1` [Rofecoxib] came in with a half-maximal inhibitory concentration (IC50) of 0.025 µM.
Consider `C[C@@H]1[C@H](O)[C@@H](C)/C=C/C=C/CC/C=C/C=C/C=C/C=C/C(O[C@H]2O[C@H](C)[C@@H](O)[C@H](N)[C@@H]2O)CC2O[C@](O)(CC(O)C(O)CCC(O)CC(O)CC(O)CC(=O)O[C@H]1C)CC(O)C2C(=O)O` (some centres unmarked) [Nystatin], for which the “inhibition zone, C. albicans” value in series [2] (setting [14]) was 21 ± 0.11 mm. The “inhibition zone, A. niger” value in [3] (setting [14]) came out at 15 ± 0.08 mm.
Consider `CC1(C)S[C@@H]2[C@H](NC(=O)[C@H](N)c3ccccc3)C(=O)N2[C@H]1C(=O)O` [Ampicillin], for which the values for the zone of inhibition at 15000 µg/mL in series [4] and in [5] were 15 ± 0.05 mm and 25 ± 0.06 mm, respectively.
With `CNC(C)C1CCC(N)C(OC2C(N)CC(N)C(OC3OCC(C)(O)C(NC)C3O)C2O)O1` (centres unmarked) [Gentamicin], the zone of inhibition at 15000 µg/mL in series [6] amounted to 22 ± 0.02 mm; in series [7], 17 ± 0.04 mm.
On to `CC(=O)Oc1ccccc1C(=O)O` [Aspirin, acetylsalicylic acid], for which the “PGE2 Inhibition%” value in series [8] is reported as 72.40%. Also, the “% Inhibition of edema 1 h” value in [9] (1 h after carrageenan) stood at 34.82%. The “% Inhibition of edema 2 h” value in [9] (2 h after carrageenan) is 42.23%. Also, the “% Inhibition of edema 4 h” value in series [9] (4 h after carrageenan) is given as 35.08%. In addition, in [9] (6 h after carrageenan), the “% Inhibition of edema 6 h” value was 47.38%. Moreover, the 50% inhibitory concentration (IC50) in series [10] came to 208.96 ± 0.05 mg/L (≈ 1160 µM); in [11] (setting [15]), 240.18 ± 0.03 mg/L (≈ 1330 µM); in series [11] (setting [16]) it was 192.4 ± 0.04 mg/L (≈ 1070 µM). The same molecule displayed a Gastric Mucosal Lesions, Ulcer Area in [12] of 86.9 ± 9.51 mm². Further, the “Gastric Mucosal Lesions, Ulcer Score” value in [12] is 5.00 ± 0.00. For the same molecule, in series [13] (setting [17]), the Epithelial loss score result is recorded as “significantly higher epithelial loss score”. Also, the Hemorrhage score result in series [13] (setting [17]) is given as “highest score of hemorrhage”. For the same molecule, the “Histopathological findings of stomach tissue” value in series [13] (rat, 400 mg/kg orally, H&E) was “serious histopathological alterations”. For the same molecule, the zone of inhibition at 15000 µg/mL in series [6] stood at 26 ± 0.11 mm; in series [2] (Candida albicans, 24 h, read-out: inhibition zone, C. albicans), 29 ± 0.09 mm; in series [3] (Aspergillus niger, 24 h, read-out: inhibition zone, A. niger), 30 ± 0.1 mm; in series [7], 18 ± 0.06 mm; in [4], 30 ± 0.07 mm; in [5], 23 ± 0.08 mm.
`COc1cccc2c1C(=O)c1c(O)c3c(c(O)c1C2=O)C[C@@](O)(C(=O)CO)C[C@@H]3O[C@H]1C[C@H](N)[C@H](O)[C@H](C)O1` [Doxorubicin]: the IC50 in [10] came to 5.7 ± 0.07 mg/L (≈ 10.5 µM); in series [11] (setting [15]) it was 205.07 ± 0.05 mg/L (≈ 377 µM); in series [11] (setting [16]) it was 4.8 ± 0.09 mg/L (≈ 8.83 µM).

Source of the values: publication PMC8615929, “Aspirin-Based Organoiron Dendrimers as Promising Anti-Inflammatory, Anticancer, and Antimicrobial Drugs” (Biomolecules, 2021).
